Test results as given in patent EP0321368A1, “Heterocyclic N-carbamoyl, N-thiocarbamoyl or N-amidino-aminomalonyl or -aminosuccinyl amide derivatives as sweetening agents” (NOFRE, Claude, priority 1987, dated 1989).
Values after ≈ are worked out from the molar mass of the structure shown.

Tests used:
goûteurs expérimentés = assay: Sweetening power judged by a panel of eight experienced tasters against a sucrose reference solution; format: in vivo; details: for pouvoir édulcorant: weight basis
Excerpt: Le pouvoir édulcorant des composés ainsi préparés a été évalué par un groupe de huit goûteurs expérimentés. Pour cela, les composés, en solution aqueuse à des concentrations variables, sont comparés, sur le plan gustatif, à une solution témoin de saccharose à 2 % et dans certains cas à 5 % et 10 ^o/o, c'est-à-dire à des concentrations correspondant à celles utilisées lors d'un usage courant. Le pouvoir sucrant des édulcorants de synthèse varie en effet suivant la concentration de la solution de saccharose utilisée comme référence. Le pouvoir édulcorant du composé testé par rapport au saccharose correspond alors au rapport pondéral qui existe entre le composé et le saccharose à égale intensité édulcorante, c'est-à-dire quand les saveurs sucrées de la solution du composé testé et de la solution témoin de saccharose sont considérées, par une majorité de goûteurs, avoir la meme intensité édulcorante.

[1] = Solubility in water at pH 3 (phosphate buffer) near 0 °C, saturated filtrate assayed by HPLC; format: physicochemical; details: for solubility at 1 h: aqueous buffer, pH 3 (phosphate buffer), 0° C, read-out: solubilité; for solubilité, fois plus élevée que celle de l'analogue carbocyclique 4-cyanophényle: ratio to exemple 4 of EP-B-0107597, pH 3, 0° C
Method: La solubilité a été mesurée de manière suivante. On met en suspension dans l'eau à pH 3 (tampon phosphate) et à température voisine de 0° C (ce qui correspond aux conditions de préparation et de stockage des boissons gazeuses) un excès du composé dont veut déterminer la solubilité. On soumet alors la suspension, toujours dans un bain de glace, à l'action des ultrasons pendant 60 min, puis on filtre (sur filtre Millipore Millex-HV 0,45 micromètre). Le composé, qui se trouve ainsi dissous à saturation dans le filtrat, est dosé par chromatographie liquide haute performance (HPLC) par rapport à une solution de référence de concentration connue.

[2] = compared with a 2 % sucrose solution

Row | Structure (SMILES) | pouvoir édulcorant (goûteurs expérimentés; [2]) | other results
1 | COC(=O)[C@H](Cc1ccccc1)NC(=O)[C@H](CC(=O)O)NC(=O)Nc1cccnc1 [Exemple 1, N-(3-pyridylcarbamoyl)-L-aspartyl-L-phénylalanine méthyl ester] | ~100 fois celui du saccharose | 
2 | COC(=O)[C@H](Cc1ccccc1)NC(=O)[C@H](CC(=O)O)NC(=S)Nc1cccnc1 [Exemple 2, N-(3-pyridylthiocarbamoyl)-L-aspartyl-L-phénylalanine méthyl ester] | ~1 000 fois celui du saccharose | 
3 | COC(=O)[C@H](Cc1ccccc1)NC(=O)[C@H](CC(=O)O)NC(=O)Nc1ccc(Cl)nc1 [Exemple 3, N-(2-chloro-5-pyridylcarbamoyl)-L-aspartyl-L-phénylalanine méthyl ester] | ~500 fois celui du saccharose | 
4 | COC(=O)[C@H](Cc1ccccc1)NC(=O)[C@H](CC(=O)O)NC(=O)Nc1ccc(C#N)nc1 [Exemple 4, N-(2-cyano-5-pyridylcarbamoyl)-L-aspartyl-L-phénylalanine méthyl ester] | ~8 000 fois celui du saccharose | fois plus sucré que le saccharose (goûteurs expérimentés; concentration of the sucrose reference not given): 8 000 fois; pouvoir édulcorant (goûteurs expérimentés; compared with a 5 % sucrose solution): ~6 000 fois; pouvoir édulcorant (goûteurs expérimentés; compared with a 10 % sucrose solution): ~4 000 fois; solubility at 1 h [1]: ~70 µg/mL (≈ 159 µM); solubilité, fois plus élevée que celle de l'analogue carbocyclique 4-cyanophényle [1]: ~3,5 fois
5 | N#Cc1ccc(NC(=O)N[C@@H](CC(=O)O)C(=O)NC(c2ccccc2)c2ccco2)cn1 (stereo partly drawn) [Exemple 5, acide N-(2-cyano-5-pyridylcarbamoyl)-L-aspartique N-[(RS)-alpha-(2-furyl)benzyl] alpha-monoamide] | ~700 fois celui du saccharose | 
6 | COC(=O)[C@H](Cc1ccccc1)NC(=O)[C@H](CC(=O)O)NC(=S)Nc1ccc(OC)nc1 [Exemple 6, N-(2-méthoxy-5-pyridylthiocarbamoyl)-L-aspartyl-L-phénylalanine méthyl ester] | ~1 400 fois celui du saccharose | 
7 | COC(=O)[C@H](Cc1ccccc1)NC(=O)[C@H](CC(=O)O)NC(=S)Nc1cnc(C#N)nc1 [Exemple 7, N-(2-cyano-5-pyrimidinylthiocarbamoyl)-L-aspartyl-L-phénylalanine méthyl ester] | ~50 000 fois celui du saccharose | 
8 | COC(=O)[C@H](Cc1ccccc1)NC(=O)[C@H](CC(=O)O)NC(=O)Nc1ccc2nonc2c1 [Exemple 8, N-(5-benzofurazanylcarbamoyl)-L-aspartyl-L-phénylalanine méthyl ester] | ~5 000 fois celui du saccharose | solubility at 1 h [1]: ~180 µg/mL (≈ 395 µM); solubilité, fois plus élevée que celle de l'analogue carbocyclique 4-cyanophényle [1]: ~9 fois
9 | COC(=O)[C@H](Cc1ccccc1)NC(=O)[C@H](CC(=O)O)NC(=O)Nc1ccc2c(c1)no[n+]2[O-] [Exemple 9, N-(1-oxyde-5-benzofurazanylcarbamoyl)-L-aspartyl-L-phénylalanine méthyl ester] | ~2 000 fois celui du saccharose | 
10 | COC(=O)[C@H](Cc1ccccc1)NC(=O)[C@H](CC(=O)O)NC(=O)Nc1ccc2nsnc2c1 [Exemple 10, N-(5-benzothiofurazanylcarbamoyl)-L-aspartyl-L-phénylalanine méthyl ester] | ~500 fois celui du saccharose | 
11 | COC(=O)[C@H](Cc1ccccc1)NC(=O)[C@H](CC(=O)O)NC(=O)Nc1ccc2c(c1)OCO2 [Exemple 11, N-(3,4-méthylènedioxyphénylcarbamoyl)-L-aspartyl-L-phénylalanine méthyl ester] | ~50 fois celui du saccharose | 
12 | COC(=O)[C@H](Cc1ccccc1)NC(=O)[C@H](CC(=O)O)NC(=O)Nc1ccc(C#N)cc1 [exemple 4 du brevet EP-B-0107597, reference compound] |  | solubility at 1 h [1]: ~20 µg/mL (≈ 45.6 µM)
